Test results: ChEMBL document CHEMBL6109125, “A New Protractor Potentiates Glucagon-Like Peptide 1 with Slow-Release Depot and Long-Term Action” (J Med Chem, 2025)
The source made the active and inactive calls. No cut-off for these calls is given here.

Experiments:
[1] = Selectivity ratio of EC50 for agonist activity at GLP-1R (unknown origin) expressed in HEK293 cells co-expressing CRE-Luc assessed as increase in intracellular cAMP accumulation in presence of 2% HSA to EC50 for agonist activity at GLP-1R (unknown origin) expressed in HEK293 cells co-expressing CRE-Luc assessed as increase in intracellular cAMP accumulation; format: cell-based
[2] = target: T1, Glucagon-like peptide 1 receptor (Homo sapiens, UniProt P43220); assay: Agonist activity at GLP-1R (unknown origin) expressed in HEK293 cells co-expressing CRE-Luc assessed as increase in intracellular cAMP accumulation in presence of 2% HSA by luciferase based assay; format: functional, cell-based; details: read-out: EC50
[3] = target: T1, Glucagon-like peptide 1 receptor; assay: Agonist activity at GLP-1R (unknown origin) expressed in HEK293 cells co-expressing CRE-Luc assessed as increase in intracellular cAMP accumulation by luciferase based assay; format: functional, cell-based; details: read-out: EC50
[4] = target: T1, Glucagon-like peptide 1 receptor; assay: Agonist activity at GLP-1R (unknown origin) expressed in HEK293 cells co-expressing CRE-Luc assessed as increase in intracellular cAMP accumulation in presence of 10% FBS by luciferase based assay; format: functional, cell-based; details: read-out: EC50
[5] = Apparent volume of distribution in BALB/c mouse at 0.5 mg/kg, iv measured up to 48 hrs by LC-MS/MS analysis; format: ADME, organism-based; details: in vivo, read-out: Vz
Mus musculus [6] = assay: Anti-hyperglycemic activity in 16 hr-fasted type-2 diabetes db/db mouse assessed as homeostasis of blood glucose level at 100 nmol/kg, sc pretreated for 0.5 hrs followed by glucose administration measured for 2 hrs; format: functional, organism-based; details: time 2.5 hrs
Mus musculus [7] = assay: Anti-hyperglycemic activity in well-fed type-2 diabetes db/db mouse assessed as blood glucose level at 100 nmol/kg, sc administered on every 48 hrs; format: functional
[8] = Apparent volume of distribution in Sprague-Dawley rat at 1 mg/kg, iv measured up to 48 hrs by LC-MS/MS analysis; format: ADME, organism-based; details: in vivo, read-out: Vz
Mus musculus [9] = assay: Anti-hyperglycemic activity in type-2 diabetes db/db mouse assessed as regulation of blood glucose level at 3 to 600 nmol/kg, sc measured up to 96 hrs; format: functional, organism-based
Mus musculus [10] = assay: Anti-hyperglycemic activity in 16 hr-fasted type-2 diabetes db/db mouse at 100 nmol/kg, sc pretreated for 0.5 hrs followed by glucose administration measured for 2 hrs by OGTT method; format: functional, organism-based; details: time 2.5 hrs
Albumin = Albumin (Homo sapiens, UniProt P02768); assay: Binding affinity to human serum albumin immobilized on AR2G biosensor assessed as dissociation constant incubated for 3 mins by BLI assay; format: ADME
[11] = Stability in Sprague-Dawley rat plasma assessed as compound remaining measured after 96 hrs by RP-HPLC analysis; format: ADME, cell-free; details: read-out: Stability
[12] = Stability in Sprague-Dawley rat plasma assessed as drug degradation by measuring half life measured after 96 hrs by RP-HPLC analysis; format: ADME, cell-free

T1 sequence (P43220 whole entry): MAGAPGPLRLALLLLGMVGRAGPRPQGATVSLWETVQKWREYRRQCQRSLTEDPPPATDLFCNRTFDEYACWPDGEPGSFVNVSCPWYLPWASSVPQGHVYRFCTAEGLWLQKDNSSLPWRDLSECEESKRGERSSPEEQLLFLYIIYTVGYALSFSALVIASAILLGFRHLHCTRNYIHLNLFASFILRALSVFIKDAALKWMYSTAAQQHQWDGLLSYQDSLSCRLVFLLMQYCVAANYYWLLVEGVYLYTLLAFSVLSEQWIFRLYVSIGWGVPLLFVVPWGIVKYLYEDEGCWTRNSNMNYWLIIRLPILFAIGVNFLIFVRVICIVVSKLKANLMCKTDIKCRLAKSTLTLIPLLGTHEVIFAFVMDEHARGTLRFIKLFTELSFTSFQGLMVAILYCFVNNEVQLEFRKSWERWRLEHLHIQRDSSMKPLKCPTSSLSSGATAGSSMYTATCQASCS
Albumin, sequence (P02768 whole entry): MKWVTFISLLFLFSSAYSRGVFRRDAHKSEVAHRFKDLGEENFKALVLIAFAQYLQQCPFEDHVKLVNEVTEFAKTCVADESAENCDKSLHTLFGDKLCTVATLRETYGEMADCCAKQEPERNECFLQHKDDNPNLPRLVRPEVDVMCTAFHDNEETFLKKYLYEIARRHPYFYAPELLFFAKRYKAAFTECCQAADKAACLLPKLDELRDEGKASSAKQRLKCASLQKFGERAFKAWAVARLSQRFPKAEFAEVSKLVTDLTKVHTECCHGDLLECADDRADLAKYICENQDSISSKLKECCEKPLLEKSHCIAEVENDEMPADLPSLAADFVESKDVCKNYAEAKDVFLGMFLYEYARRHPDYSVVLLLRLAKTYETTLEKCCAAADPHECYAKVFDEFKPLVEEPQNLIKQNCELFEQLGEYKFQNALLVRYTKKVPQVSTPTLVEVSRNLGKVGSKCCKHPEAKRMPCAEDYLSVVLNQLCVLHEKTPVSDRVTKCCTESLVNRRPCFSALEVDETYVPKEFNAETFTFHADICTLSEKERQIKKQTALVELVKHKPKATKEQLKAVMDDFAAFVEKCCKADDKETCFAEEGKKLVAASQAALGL

Row | Compound | Ratio EC50 [1] | EC50 [2] | EC50 [3] | EC50 [4] | other results
1 | CCOc1ccc(Nc2ccc(/C(=C3C=C/C(=[N+](\CC)Cc4ccc(S(=O)(=O)[O-])cc4)C=C/3C)c3ccc(N(CC)Cc4cccc(S(=O)(=O)NCCCCCC(=O)N[C@H](C(=O)O)C(=O)NCCCC[C@H](NC(=O)[C@H](C)NC(=O)[C@H](C)NC(=O)[C@H](CCC(N)=O)NC(=O)CNC(=O)[C@H](CCC(=O)O)NC(=O)[C@H](CC(C)C)NC(=O)[C@H](Cc5ccc(O)cc5)NC(=O)[C@H](CO)NC(=O)[C@H](CO)NC(=O)[C@@H](NC(=O)[C@H](CC(=O)O)NC(=O)[C@H](CO)NC(=O)[C@@H](NC(=O)[C@H](Cc5ccccc5)NC(=O)[C@@H](NC(=O)CNC(=O)[C@H](CCC(=O)O)NC(=O)C(C)(C)NC(=O)[C@@H](N)Cc5c[nH]cn5)[C@@H](C)O)[C@@H](C)O)C(C)C)C(=O)N[C@@H](CCC(=O)O)C(=O)N[C@@H](Cc5ccccc5)C(=O)N[C@H](C(=O)N[C@@H](C)C(=O)N[C@@H](Cc5c[nH]c6ccccc56)C(=O)N[C@@H](CC(C)C)C(=O)N[C@H](C(=O)N[C@@H](CCCNC(=N)N)C(=O)NCC(=O)N[C@@H](CCCNC(=N)N)C(=O)NCC(=O)O)C(C)C)[C@@H](C)CC)c4)cc3C)cc2)cc1 | 7.91 | 8.86 pM | 1.12 pM | 4.08 pM | –
2 | CCOc1ccc(Nc2ccc(/C(=C3C=C/C(=[N+](\CC)Cc4cccc(S(=O)(=O)[O-])c4)C=C\3C)c3ccc(N(CC)Cc4cccc(S(=O)(=O)NCCCCCC(=O)NCCOCCOCCOCCOCCOCCOCCOCCOCCC(=O)NCCCC[C@H](NC(=O)[C@@H](NC(=O)[C@H](CC(C)C)NC(=O)[C@H](Cc5c[nH]c6ccccc56)NC(=O)[C@H](C)NC(=O)[C@@H](NC(=O)[C@H](Cc5ccccc5)NC(=O)[C@H](CCC(=O)O)NC(=O)[C@H](CCCCN)NC(=O)[C@H](C)NC(=O)[C@H](C)NC(=O)[C@H](CCC(N)=O)NC(=O)CNC(=O)[C@H](CCC(=O)O)NC(=O)[C@H](CC(C)C)NC(=O)[C@H](Cc5ccc(O)cc5)NC(=O)[C@H](CO)NC(=O)[C@H](CO)NC(=O)[C@@H](NC(=O)[C@H](CC(=O)O)NC(=O)[C@H](CO)NC(=O)[C@@H](NC(=O)[C@H](Cc5ccccc5)NC(=O)[C@@H](NC(=O)CNC(=O)[C@H](CCC(=O)O)NC(=O)[C@H](CO)NC(=O)[C@@H](N)Cc5c[nH]cn5)[C@@H](C)O)[C@@H](C)O)C(C)C)[C@@H](C)CC)C(C)C)C(=O)NCC(=O)N[C@@H](CCCNC(=N)N)C(N)=O)c4)cc3C)cc2)cc1 | 2.55 | 0.84 pM | 0.33 pM | 3.96 pM | –
3 | CC[C@H](C)[C@H](NC(=O)[C@H](Cc1ccccc1)NC(=O)[C@H](CCC(=O)O)NC(=O)[C@H](CCCCNC(=O)COCCOCCNC(=O)COCCOCCNC(=O)CC[C@H](NC(=O)CCCCCCCCCCCCCCCCC(=O)O)C(=O)O)NC(=O)[C@H](C)NC(=O)[C@H](C)NC(=O)[C@H](CCC(N)=O)NC(=O)CNC(=O)[C@H](CCC(=O)O)NC(=O)[C@H](CC(C)C)NC(=O)[C@H](Cc1ccc(O)cc1)NC(=O)[C@H](CO)NC(=O)[C@H](CO)NC(=O)[C@@H](NC(=O)[C@H](CC(=O)O)NC(=O)[C@H](CO)NC(=O)[C@@H](NC(=O)[C@H](Cc1ccccc1)NC(=O)[C@@H](NC(=O)CNC(=O)[C@H](CCC(=O)O)NC(=O)C(C)(C)NC(=O)[C@@H](N)Cc1cnc[nH]1)[C@@H](C)O)[C@@H](C)O)C(C)C)C(=O)N[C@@H](C)C(=O)N[C@@H](Cc1c[nH]c2ccccc12)C(=O)N[C@@H](CC(C)C)C(=O)N[C@H](C(=O)N[C@@H](CCCNC(=N)N)C(=O)NCC(=O)N[C@@H](CCCNC(=N)N)C(=O)NCC(=O)O)C(C)C | – | – | – | – | Vd [5]: 0.083 L/kg; Activity (Mus musculus [6]): Active; Activity (Mus musculus [7]): <10 mM; Vd [8]: 0.163 L/kg; EC50 (Mus musculus [9]): 2 nmol/kg; Activity (Mus musculus [10]): Active
4 | CCOc1ccc(Nc2ccc(/C(=C3C=C/C(=[N+](/CC)Cc4cccc(S(=O)(=O)[O-])c4)C=C/3C)c3ccc(N(CC)Cc4cccc(S(=O)(=O)O)c4)cc3C)cc2)cc1 [BRILLIANT BLUE G FREE ACID] | – | – | – | – | Kd (Albumin): 320 nM
5 | CCOc1ccc(Nc2ccc(/C(=C3C=C/C(=[N+](\CC)Cc4ccc(S(=O)(=O)[O-])cc4)C=C/3C)c3ccc(N(CC)Cc4cccc(S(=O)(=O)NCCCCCC(=O)NCc5ccc(C(=O)NCCCC[C@H](NC(=O)[C@H](C)NC(=O)[C@H](C)NC(=O)[C@H](CCC(N)=O)NC(=O)CNC(=O)[C@H](CCC(=O)O)NC(=O)[C@H](CC(C)C)NC(=O)[C@H](Cc6ccc(O)cc6)NC(=O)[C@H](CO)NC(=O)[C@H](CO)NC(=O)[C@@H](NC(=O)[C@H](CC(=O)O)NC(=O)[C@H](CO)NC(=O)[C@@H](NC(=O)[C@H](Cc6ccccc6)NC(=O)[C@@H](NC(=O)CNC(=O)[C@H](CCC(=O)O)NC(=O)C(C)(C)NC(=O)[C@@H](N)Cc6c[nH]cn6)[C@@H](C)O)[C@@H](C)O)C(C)C)C(=O)N[C@@H](CCC(=O)O)C(=O)N[C@@H](Cc6ccccc6)C(=O)N[C@H](C(=O)N[C@@H](C)C(=O)N[C@@H](Cc6c[nH]c7ccccc67)C(=O)N[C@@H](CC(C)C)C(=O)N[C@H](C(=O)N[C@@H](CCCNC(=N)N)C(=O)NCC(=O)N[C@@H](CCCNC(=N)N)C(=O)NCC(=O)O)C(C)C)[C@@H](C)CC)cc5)c4)cc3C)cc2)cc1 | – | 3.22 pM | 1.08 pM | 4.2 pM | –
6 | H-HGEGTFTSDVSSYLEGQAAREFIAWLVRGRG-NH2 | 1.34 | 84.2 pM | 62.8 pM | 16.1 pM | remaining at 96 h [11]: 0%; half-life [12]: 50 min
7 | CCOc1ccc(Nc2ccc(/C(=C3C=C/C(=[N+](\CC)Cc4cccc(S(=O)(=O)[O-])c4)C=C/3C)c3ccc(N(CC)Cc4cccc(S(=O)(=O)NCCCCCC(=O)NCCOCCOCC(=O)NCCOCCOCC(=O)NCCOCCOCC(=O)NCCCC[C@H](NC(=O)[C@H](C)NC(=O)[C@H](C)NC(=O)[C@H](CCC(N)=O)NC(=O)CNC(=O)[C@H](CCC(=O)O)NC(=O)[C@H](CC(C)C)NC(=O)[C@H](Cc5ccc(O)cc5)NC(=O)[C@H](CO)NC(=O)[C@H](CO)NC(=O)[C@@H](NC(=O)[C@H](CC(=O)O)NC(=O)[C@H](CO)NC(=O)[C@@H](NC(=O)[C@H](Cc5ccccc5)NC(=O)[C@@H](NC(=O)CNC(=O)[C@H](CCC(=O)O)NC(=O)C(C)(C)NC(=O)[C@@H](N)Cc5c[nH]cn5)[C@@H](C)O)[C@@H](C)O)C(C)C)C(=O)N[C@@H](CCC(=O)O)C(=O)N[C@@H](Cc5ccccc5)C(=O)N[C@H](C(=O)N[C@@H](C)C(=O)N[C@@H](Cc5c[nH]c6ccccc56)C(=O)N[C@@H](CC(C)C)C(=O)N[C@H](C(=O)N[C@@H](CCCNC(=N)N)C(=O)NCC(=O)N[C@@H](CCCNC(=N)N)C(=O)NCC(=O)O)C(C)C)[C@@H](C)CC)c4)cc3C)cc2)cc1 | – | 4.31 pM | 0.83 pM | 1.46 pM | –
